Results on nine molecules are retold here after publication PMC7994622, “Eryptosis and Malaria: New Experimental Guidelines and Re-Evaluation of the Antimalarial Potential of Eryptosis Inducers” (Frontiers in Cellular and Infection Microbiology, 2021).

The test system of series [1] is P. falciparum. The note with it: cited from earlier work.
The subject of series [2] is P. falciparum-infected erythrocytes. As to the kind of experiment: Eryptosis assay by flow cytometry on P. falciparum-infected erythrocytes. It is filed as cell-based, human. The note with it: 4 h in iRPMI, 4% hematocrit, 1, 5, 10 μM (ionomycin 1 μM), PS exposure, cell size, intracellular calcium, hemolysis, significant changes. Here is the method: (§1) Use of human erythrocytes was approved by the La Trobe University Research Ethics Committee (ethics number HEC17‐013) and an Australian Red Cross Blood Service Agreement (Deed 19-05VIC-01). Red blood cell populations are intrinsically heterogeneous and variable between donors, therefore each experiment presented in this study was conducted a minimum of three independent times, each with a different batch of blood. Human red cells were processed as soon as possible upon collection to minimize erythrocyte aging. Naïve (non-infected) erythrocytes and Plasmodium falciparum 3D7-infected erythrocytes were cultured at 37°C, in low oxygen conditions (1% O2, 5% CO2, 94% N2), at 4% or 0.4% hematocrit, in incomplete RPMI media (iRPMI: RPMI 1640 HEPES, 50 mg/L hypoxanthine, 10 mg/L gentamicin, pH 6.74), complete RPMI media (cRPMI: incomplete RPMI supplemented with 2.25 g/L sodium bicarbonate and 5 g/L AlbuMAX II), or Ringer solution (1mM CaCl2, 5mM glucose, 32 mM HEPES pH 7.4, 5 mM KCl, 1mM MgSO4, 125mM NaCl). P. falciparum standard in vitro culture conditions were conducted as previously described ([Trager and Jensen, 1976]).
(§2) Drug assays measuring eryptosis were carried out in 100 μl or 500 μl of culture when using 4% or 0.4% hematocrit conditions, respectively. DMSO, the vehicle, was used for the no-drug conditions. Cells were incubated at 37°C, in low oxygen conditions for 1 h to 48 h depending on the assay. Each experiment was performed in triplicate unless otherwise indicated and cells were analyzed by flow cytometry. […] Cells were washed in staining buffer (5 mM CaCl2, 5 mM glucose, 32 mM HEPES pH7.4, 5 mM KCl, 1 mM MgSO4, 125 mM NaCl), resuspended in 0.3 μM of intracellular calcium dye x-Rhod-1 AM (Invitrogen) and incubated in the dark at 37°C for 30 min. Subsequently, cells were washed in staining buffer and incubated with Annexin V-PE (1:20 dilution in staining buffer; BD Bioscience) at 37°C for 20 min in the dark for the staining of surface-exposed phosphatidylserine. Cells were resuspended in 200 μl staining buffer and analyzed within the hour using a CytoFLEX S flow cytometer (Beckman Coulter). 100,000 total events were recorded for each condition at a flow rate of 10 μl/min. Data were analyzed using FlowJo V10. For PS exposure measure, gating was set using data obtained with naïve erythrocytes DMSO control. Infected cells were gated using Hoechst fluorescence. The percentage of Annexin V-PE positive cells, the mean forward scatter height (FSC-H) and mean x-Rhod-1 fluorescence area (PE-A) were acquired for naïve and infected-erythrocytes.

Series [3] concerns P. berghei. The note with it: cited from earlier work.
Series [4] concerns erythrocytes. The note with it: cited from earlier work.
Series [5] concerns naïve erythrocytes. As to the kind of experiment: Eryptosis assay by flow cytometry (PS exposure, cell size, intracellular calcium) on naïve erythrocytes. The format is cell-based, human. As to conditions: for Eryptosis hallmarks, naïve erythrocytes: 4 h in iRPMI, 1, 5, 10 μM (ionomycin 1 μM), PS exposure, cell size, intracellular calcium, hemolysis, significant changes. How it is done:
as §1, §2

Series [6] deals with P. falciparum. As to the kind of experiment: Parasite growth inhibition assay (SYBR Gold, 72 h). The format is cell-based, Plasmodium falciparum 3D7. How it is done: as §1
Compound-induced parasite growth inhibition was measured as previously described ([Morahan et al., 2020]). Briefly, an asynchronous parasite culture at 0.25% parasitemia and 2% hematocrit was incubated in a 96-well plate with a two-fold serial dilution of compound over 72 h in standard culture conditions (cRPMI, 37°C, low oxygen). Compounds (at 10 mM in DMSO) were added to the first well of the dilution series to produce a 50 µM drug concentration (and 0.5% (v/v) DMSO) and diluted two-fold until a concentration of 0.19 nM compound was reached. Each condition was conducted in triplicates, subject to a freeze/thaw cycle and incubated with the DNA intercalant SYBR Gold following manufacturer instructions (SYBR™ Gold Nucleic Acid Stain, Invitrogen). The average fluorescence between triplicates was measured at 495 nm using a CLARIOstar® microplate reader and analyzed as a proxy of parasite replication.

Series [7] deals with naïve erythrocytes. As to the kind of experiment: Hemolysis assay (absorbance 405 nm) on naïve erythrocytes. It is filed as cell-based, human. As to conditions: 48 h. The text has this:
Absorbance of culture media alone was considered as baseline.

Where [8] appears, read: asynchronous culture, cRPMI, up to 50 µM, N=5, read-out: P. falciparum IC50.
Where [9] appears, read: Plasmodium falciparum, asynchronous culture, cRPMI, up to 50 µM, N=5, read-out: P. falciparum IC50.
[10] abbreviates: 1 μM, 1 h, iRPMI, 4% hematocrit.

The structures appear in SMILES notation. Entries after “also recorded” stand apart in the source; their conditions may differ. Counter-ions that a name gives are not always drawn. Like-named read-outs stand apart in the source and are kept apart here.

As for `CCCCc1oc2ccccc2c1C(=O)c1cc(I)c(OCCN(CC)CC)c(I)c1` [Amiodarone, amiodarone HCl], the “Effect on P. falciparum: parasitemia” value in series [1] (Pf in vitro, ref Bobbala et al., 2010b) is “Reduced parasitemia”. The “Eryptosis hallmarks, P. falciparum-infected erythrocytes” value in series [2] is “Ns”. In series [3] (Pb in vivo, ref Bobbala et al., 2010b), the “Effect on P. berghei: parasitemia” value is “Reduced parasitemia”. Besides, the “Effect on P. berghei: mice survival” value in series [3] (Pb, ref Bobbala et al., 2010b) is listed as “increased mice survival”. Besides, the “Published eryptosis induction concentration” value in series [4] (naïve erythrocytes, ref Nicolay et al., 2007) was 5 µM, ([Nicolay et al., 2007]); in series [4] (naïve erythrocytes, ref Nicolay et al., 2007, listed as amiodarone) it was 5 µM. Besides, the “Eryptosis hallmarks, naïve erythrocytes” value in series [5] (4% hematocrit) is given as “↑ Calcium (5 μM)”.
Turning to `O=c1cc(-c2ccc(O)cc2)oc2cc(O)cc(O)c12` [Apigenin, apigenin], the half-maximal inhibitory concentration (IC50) was 36 µM in series [1] (in vitro, ref Fallatah and Georges, 2017, read-out: P. falciparum IC50, previously published); 65.8 µM in series [6] (setting [8]). Moreover, the “Eryptosis hallmarks, P. falciparum-infected erythrocytes” value in series [2] was “Ns”. In addition, the “Effect on P. berghei: parasitemia” value in series [3] (Pb, ref Amiri et al., 2018) is “Decreased parasitemia (Pb) ([Amiri et al., 2018])”. Further, the “Published eryptosis induction concentration” value in series [4] (naïve erythrocytes, ref Zbidah et al., 2012) is 15 µM, ([Zbidah et al., 2012]); in series [4] (naïve erythrocytes, ref Zbidah et al., 2012, listed as apigenin) it was 15 µM. Besides, the “Eryptosis hallmarks, naïve erythrocytes” value in series [5] (4% hematocrit) is recorded as “Ns”.
On to `CNC(=O)c1cc(Oc2ccc(NC(=O)Nc3ccc(Cl)c(C(F)(F)F)c3)cc2)ccn1` [BAY 43-9006, Sorafenib], for which the “Eryptosis hallmarks, P. falciparum-infected erythrocytes” value in series [2] is recorded as “Ns”. Besides, the hemolysis result was “significantly induced hemolysis” in series [7] (10 µM, Ringer, 0.4% hematocrit); “not” in series [7] (10 µM, Ringer, 4% hematocrit); “not” in series [7] (10 µM, cRPMI, 4% hematocrit). Moreover, the IC50 in series [6] (setting [9]) was below 10 µM; in series [6] (setting [8]) it was 7.48 µM. Moreover, the “percentage of PS-exposing cells” value in series [5] (10 µM, 48 h, Ringer solution, 0.4% hematocrit) was determined as 41%; in series [5] (10 µM, 48 h, Ringer solution, 4% hematocrit), 10%. In series [5] (10 µM, 48 h, cRPMI, 4% hematocrit), the PS exposure entry is “no significant increase”. The “Eryptosis hallmarks, naïve erythrocytes” value in series [5] (4% hematocrit) is “Ns”.
With `CC(C)(C)CC(C)(C)c1ccc(OCCOCC[N+](C)(C)Cc2ccccc2)cc1` [Benzethonium, benzethonium chloride], in series [2], the “Eryptosis hallmarks, P. falciparum-infected erythrocytes” value was “Ns *”. In addition, the “Eryptosis hallmarks, naïve erythrocytes” value in series [5] (4% hematocrit) is “Ns”.
Take `Nc1ncnc2c1ncn2[C@@H]1O[C@H](CO)C[C@H]1O` [Cordycepin, cordycepin]: the “Eryptosis hallmarks, P. falciparum-infected erythrocytes” value in series [2] is “Ns”. The IC50 in series [6] (setting [9]) is 12 µM; in series [6] (asynchronous culture, cRPMI, up to 50 µM, N=5, listed as cordycepin, read-out: P. falciparum IC50) it was above 10 µM; in series [6] (setting [8]) it was 12.1 µM. Moreover, the “Published eryptosis induction concentration” value in series [4] (mouse erythrocytes, ref Lui et al., 2007) is 31 µM, ([Lui et al., 2007]); in series [4] (mouse erythrocytes, ref Lui et al., 2007, listed as cordycepin) it was 31 µM. In addition, in series [5] (4% hematocrit), the “Eryptosis hallmarks, naïve erythrocytes” value was “Ns”.
`C[C@H](CCC(=O)O)C[C@H](C)C[C@H](C)C(=O)/C=C(\O)[C@H](C)C[C@H](C)C/C=C/[C@@H](C)[C@@H](O)[C@@H](C)[C@@H](O)C[C@@H]1CC[C@@](C)([C@H]2CC[C@@](C)([C@@H](C)O)O2)O1` [Ionomycin, ionomycin]: the “Eryptosis hallmarks, P. falciparum-infected erythrocytes” value in series [2] is “↑ PS exposure ↓ Cell Size (1 μM)”; in series [2] (listed as ionomycin) it was “significant increase of PS exposure and a decrease in cell size”. Besides, the hemolysis entry in series [7] (1 μM, Ringer or iRPMI with addition of Albumax, 4% hematocrit) was “abolish ionomycin-induced hemolysis”. Moreover, the “hemolysis (OD405)” value in series [7] (1 μM, Ringer, 4% hematocrit) is 20.5; in series [7] (1 μM, iRPMI, 4% hematocrit) it was 5.5. In addition, the “increase in PS exposure compared to the no-drug condition” value is recorded as 62 fold in series [5] (1 μM, 1 h, Ringer solution, 4% hematocrit) and 45 fold in series [5] (setting [10]). The PS exposure in series [5] (1 μM, 1 h, Ringer, 4% hematocrit) stood at 6.6%; in series [5] (setting [10]), 4.4%; in series [5] (1 μM, 24 h, Ringer+Albumax, 4% hematocrit), 13.2%; in series [5] (1 μM, 48 h, Ringer+Albumax, 4% hematocrit), 22%; in series [5] (1 μM, 48 h, Ringer, 4% hematocrit) it was 24%; in series [5] (1 μM, 48 h, iRPMI+Albumax, 4% hematocrit) it was 15%. The PS exposure in series [5] (1 μM, 48 h, iRPMI+Albumax, 4% hematocrit, listed as ionomycin) is listed as 14.6%; in series [5] (1 μM, 48 h, iRPMI, 4% hematocrit) it was 23%. The “Eryptosis hallmarks, naïve erythrocytes” value in series [5] (4% hematocrit) is “↑ PS exposure ↓ Cell Size (1 μM)”; in series [5] (4% hematocrit, listed as ionomycin) it was “significant increase of PS exposure and a decrease in cell size”.
Regarding `C=C1C(=O)[C@]23[C@H](O)[C@H]1CC[C@H]2[C@@]12CO[C@]3(O)[C@@H](O)[C@@H]1C(C)(C)CC[C@@H]2O` [Oridonin, oridonin], the “Eryptosis hallmarks, P. falciparum-infected erythrocytes” value in series [2] is “Ns”; in series [2] (listed as oridonin), “did not induce statistically significant changes; also recorded: no significant increase”. Also, the IC50 in series [6] (setting [9]) was around 2 µM; in series [6] (setting [8]), at most 2 µM. Moreover, the “Published eryptosis induction concentration” value in series [4] (naïve erythrocytes, ref Jilani et al., 2011) was 25 µM, ([Jilani et al., 2011]); in series [4] (naïve erythrocytes, ref Jilani et al., 2011, listed as oridonin), 25 µM. The “Eryptosis hallmarks, naïve erythrocytes” value in series [5] (4% hematocrit) is on record as “Ns”; in series [5] (4% hematocrit, listed as oridonin) it was “did not induce statistically significant changes; also recorded: no significant increase”.
With `C[C@@H]1CC[C@H]2[C@@H](C)C(=O)O[C@@H]3O[C@@]4(C)CC[C@@H]1[C@]32OO4` [artemisinin], in series [6] (Plasmodium falciparum, asynchronous culture, cRPMI, read-out: P. falciparum IC50), the IC50 worked out at 0.012 µM.
On to `CCN(CC)CCCC(C)Nc1ccnc2cc(Cl)ccc12` (stereo not drawn) [chloroquine], for which the IC50 in series [6] (Plasmodium falciparum, read-out: P. falciparum IC50, asynchronous culture, cRPMI, 72 h) worked out at 0.022 µM.
